Data: patent publication US20250248393A1, “METHOD OF RELEASING A SEMIOCHEMICAL IN THE ENVIRONEMENT BY PASSIVE DIFFUSION, SYSTEM AND MEANS, ESPECIALLY STICKS, TO THIS END, AND USES THEREOF” (SIGNS, priority 2024, published 2025)

How the values were obtained:
Type in all cases: physicochemical
[1] = F3 block stability study in sodium stearate aqueous gel (GC-MS); conditions: after 3 months
Description: Aqueous sodium stearate gel is a method used by SIGNS for several of the pheromones it markets (pork, poultry, rabbit). The sodium stearate matrix is cast at high temperature (60° C.) and contains 2% pheromone. In this study, matrix samples are taken by coring, and the active ingredients are extracted by apolar solvent, using the SIGNS-validated quality control method. Extracts are analyzed by GC-MS. […] Given this observation, formula F3 cannot be used in blocks for passive diffusion, so a change of galenic formulation is necessary.

[2] = F3 sticks device, direct diffusion, 40 mL and four sticks (SPME GC/MS); conditions: four sticks
Description: (§1) Three devices containing 40 mL of F3 feline facial pheromone product and four rattan sticks were prepared and left on diffusion. Every Monday, Wednesday and Friday, the diffusion of the pheromone in air was checked by analysis by gas chromatography coupled with mass spectrometer (GC/MS) and SPME (solid phase microextraction) until there is no liquid left (about 22 days).
To that purpose, the studied device was taken and placed into a closed space (in our case an aquarium turned over) containing the SPME fiber as shown on FIG. 24.
The SPME fiber was left for two hours to give the time for the molecules to adsorb on the fiber, then the fiber was injected into the GC/MS instrument for analysis.
Analysis were carried out using gas chromatography with mass spectrometer. The instrument was a GCMS QP2010SE® from Shimadzu with an AOC6000® Autosampler. The separation was performed on a ZB-5 MS® column (30 m×0.25 mm×0.25 μm, stationary phase: 95% Dimethylpolysiloxane, 5% Phenyl-Arylene) from Phenomenex. The GC oven temperature was initially held at 100° C. for 1 minute then increased at a pace of 10° C./min to 120° C. and left at this temperature for 3 minutes. Finally, the oven temperature was increased at a pace of 10° C./min to 240° C. and left at this temperature for 10 minutes. The carrier gas was helium at 1 mL/min. Analysis were performed in split mode using a split/splitless injector (Temperature: 250° C., split: 1:20). The SPME fiber was directly injected into the injector and left for 30 minutes. Separated molecules were detected using a mass spectrometer which was operated in electron impact ionization (EI) in both full scan (FS) and single ion monitoring (SIM) modes, so called FASST (Fast Automated SCAN/SIM type) mode. The interface temperature was set at 300° C. and electron impact source temperature at 250° C. The analyser was a quadrupole.
For the measurement of the relative quantity of active ingredient spreading in air, the area of the chromatographic peak corresponding to the compound was measured using Shimadzu GCMS-Solution software.

[3] = F3 migration along the stick (top 1 cm, GC/MS); conditions: F3, five sticks
Description: Three devices containing 40 mL of F3 feline facial pheromone product and five […] sticks were prepared and left on diffusion. A t=1 day, T=3 days, T=10 days, T=15 days and T=22 days after preparation of the devices, one stick was taken on each device and 1 cm of the top of each stick was cut, then extracted with acetone 1 h in an ultrasonic bath and analysed by gas chromatography coupled with mass spectrometry (GC/MS). The same analytical parameters were used for the study C with a liquid injection (injected quantity: […]) Blank analysis and matrix blank analysis were also performed.

[4] = F3 direct diffusion and mass loss, 40 mL and eight sticks with a refill; conditions: F3, eight sticks
Description: as §1, with “To that purpose, three devices” for “Three devices”, “and eight” for “and four”, “there was” for “there is”, “liquid left. Then, the solution was refilled and a second study of the diffusion of the pheromone was performed.” for “liquid left (about 22 days).”
Experimentally, the studied device was taken and placed into a closed space under identical conditions than in section E/, and for analyzing the same data.
Each measuring day, the devices were weighed and the level of the solution in the flask was controlled.

[5] = F3 direct diffusion, 120 mL and six sticks; conditions: 6 sticks
Description: To that purpose, three devices containing 120 mL of F3 feline facial pheromone product and six rattan sticks were prepared and left on diffusion as shown on FIG. 43.
The direct diffusion of F3 pheromone was then studied following the same protocol as the protocol of the first study shown in Section E/herein.
Each measuring day, the flasks were weighed, and the volume of the liquid was checked visually: see FIGS. 55 and 56.

[6] = F3P PCDS indirect diffusion, pheromone remaining in solution (GC/FID)
Description: For this study, three diffusers each containing 40 mL of product and 6 capillaries were prepared and diffused. Once a week, on Wednesdays, the amount of pheromone remaining in the solution was monitored by gas chromatography analysis coupled to a flame ionization detector (GC/FID) until no liquid remained. The percentage of pheromone was measured weekly.
Next, the percentage of pheromone was checked by external calibration using a GC/FID calibration range.
Analyses were carried out by gas chromatography coupled to a flame ionization detector. The instrument was a Shimadzu GC 2025® with an AOC20i® autosampler. Separation was performed on an Agilent DB-FFAP® column (30 m×0.25 mm×0.25 μm, stationary phase: nitroterephthalic acid-modified polyethylene glycol). The temperature of the gas chromatography oven was initially maintained at 140° C. for 2 minutes, then increased at 10° C./min to 250° C. and left at this temperature for 3 minutes. The carrier gas was helium at 1 mL/min. Analyses were performed in split mode using a split/splitless injector (temperature: 250° C., split: 1:50).
The detector used was a flame ionization detector. The detector temperature was 250° C. with an air flow rate of 400 mL/min, hydrogen 40 mL/min and nitrogen 30 mL/min.
For this purpose, a calibration range was prepared for each analysis. […]

[7] = Ratios of molecules diffused through the sticks over time
Description: Furthermore, as small molecules diffuse more, it happens that they lose intensity over the course of the study, so the ratios are different 24 hours after immersing the sticks in the liquid and 21 days later. Here are the ratios for each pheromone studied at the start of the study and at the end.

- stability in the block [1]: disappeared completely
- direct diffusion over time [2]: gradually decreased over time
- relative quantity on the top of the stick [3]: less present
- intensity of direct diffusion [4]: highest diffusion
- direct diffusion over time [5]: decreased over time
- quantities found in the solution [6]: very low
- ratio of molecules diffused through the sticks ([7]; F3, 24 h after immersion of sticks): 70 % (w/w)
- ratio of molecules diffused through the sticks ([7]; F3, 21 days after immersion of sticks (empty tank)): 48 % (w/w)
- ratio of molecules diffused through the sticks ([7]; F3P, 24 h after immersion of the sticks): 56 % (w/w)
- ratio of molecules diffused through the sticks ([7]; F3P, 21 days after immersion of sticks (empty tank)): 36.5 % (w/w)
SMILES: COC(=O)CCCCCC(=O)OC [dimethyl pimelate, dimethyl heptanedioate]
- quantity on the top of the stick over time [3]: decreased significantly between 5 and 10 days before stabilising
